pIC50: −log10 of the molar value. Marks after values point to notes of the source that are not given here. One block for each compound: values may come before it.
Assays:
marble burying [1] = conditions: mice; ref 7a,d; cited from earlier work
rat mGlu5 = rat mGlu5 (Rattus norvegicus, UniProt P31424); test: Calcium mobilization mGlu5 assay; format: cell-based; conditions: for mGlu5 pIC50 (± SEM) / pIC50: HEK293A cells expressing rat mGlu5, EC80 glutamate; for mGlu5 pIC50 (± SEM): average of n ≥ 3; for pIC50: read-out: mGlu5 IC50
marble burying [2] = test: Mouse marble burying model of anxiety; conditions: IP dosing, 15 minute pretreatment; all doses greater than or equal to 3 mg/kg; n = 8 per dose; P < 0.001 vs. vehicle
[3] = tested on: panel of 68 clinically relevant GPCRs, ion channels, kinases, and transporters; test: Radioligand binding assay panel; conditions: 10 μM compound; significant = more than 50% inhibition of radioligand binding
[4] = prior PK studies in rats; cited from earlier work

rat mGlu5, sequence (P31424 21-1203): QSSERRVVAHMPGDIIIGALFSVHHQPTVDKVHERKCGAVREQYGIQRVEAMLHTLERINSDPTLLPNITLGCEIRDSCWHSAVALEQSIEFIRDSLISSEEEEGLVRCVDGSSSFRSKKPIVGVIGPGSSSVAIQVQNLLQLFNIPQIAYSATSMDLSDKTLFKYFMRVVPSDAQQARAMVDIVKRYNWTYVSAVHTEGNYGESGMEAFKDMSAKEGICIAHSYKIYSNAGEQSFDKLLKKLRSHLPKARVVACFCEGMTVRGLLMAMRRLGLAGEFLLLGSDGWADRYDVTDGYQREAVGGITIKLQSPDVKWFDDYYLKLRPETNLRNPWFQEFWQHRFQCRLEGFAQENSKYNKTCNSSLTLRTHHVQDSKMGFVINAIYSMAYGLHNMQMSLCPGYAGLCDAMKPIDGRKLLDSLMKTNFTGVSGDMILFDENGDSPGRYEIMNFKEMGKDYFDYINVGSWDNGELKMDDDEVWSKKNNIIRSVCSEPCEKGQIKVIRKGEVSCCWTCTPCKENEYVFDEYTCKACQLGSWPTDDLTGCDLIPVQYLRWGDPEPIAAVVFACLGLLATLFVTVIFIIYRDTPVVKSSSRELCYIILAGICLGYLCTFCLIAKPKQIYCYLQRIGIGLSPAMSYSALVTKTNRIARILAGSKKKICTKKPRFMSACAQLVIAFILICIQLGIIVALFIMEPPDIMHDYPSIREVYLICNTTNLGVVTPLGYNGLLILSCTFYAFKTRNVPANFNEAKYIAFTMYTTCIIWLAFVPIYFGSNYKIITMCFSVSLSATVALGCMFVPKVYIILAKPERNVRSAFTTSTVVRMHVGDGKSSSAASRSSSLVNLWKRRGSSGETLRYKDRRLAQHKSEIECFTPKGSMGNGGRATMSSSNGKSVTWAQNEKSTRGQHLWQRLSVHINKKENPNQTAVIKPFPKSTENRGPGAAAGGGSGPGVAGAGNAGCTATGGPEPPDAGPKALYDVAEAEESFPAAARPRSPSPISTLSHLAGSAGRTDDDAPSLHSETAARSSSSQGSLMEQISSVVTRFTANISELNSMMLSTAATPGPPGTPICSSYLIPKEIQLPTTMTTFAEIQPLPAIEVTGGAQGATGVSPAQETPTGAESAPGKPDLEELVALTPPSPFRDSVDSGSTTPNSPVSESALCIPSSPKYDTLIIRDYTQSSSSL

SMILES: CN1CC(=O)NC1=NC(=O)Nc1cccc(Cl)c1 [fenobam]
- efficacy in marble burying model (marble burying [1]): effective

SMILES: Cc1cccc(C#Cc2ccccc2)n1 [MPEP]
- efficacy in marble burying model (marble burying [1]): effective

SMILES: CCCc1csc(NC(=O)c2cc(F)cc(Oc3cncnc3)c2)n1 [Compound 33]
- fold loss of potency compared to 24 (rat mGlu5; mGlu5 potency vs 24): 10 fold

SMILES: O=C(Nc1ccncn1)c1cccc(Oc2cccnc2)c1 [Compound 11]
- mGlu5 pIC50 (± SEM) (rat mGlu5): < 5.0 ^c
- pIC50 (rat mGlu5): < 5.00

SMILES: O=C(Nc1nc(C(F)(F)F)cs1)c1cccc(Oc2cccnc2)c1 [Compound 20]
- mGlu5 pIC50 (± SEM) (rat mGlu5): < 4.5
- pIC50 (rat mGlu5): < 4.52

SMILES: O=C(Nc1cccc(Cl)c1)c1cccc(Oc2cccnc2)c1 [Compound 3]
- fold less potent than 2 (rat mGlu5; mGlu5 potency vs 2): more than 20 fold

SMILES: Cc1nsc(NC(=O)c2cccc(Oc3cccnc3)c2)n1 [Compound 19]
- mGlu5 pIC50 (± SEM) (rat mGlu5): < 4.5
- pIC50 (rat mGlu5): < 4.52

Second part, led by results:

- responses in radioligand binding panel of 68 targets [3]: no significant responses
SMILES: Cc1csc(NC(=O)c2cc(F)cc(Oc3cncnc3)c2)n1 [Compound 24]
- inhibition of marble burying (marble burying [2]): Statistically significant inhibition
- clearance in rats [4]: moderate to high clearance

- fold loss of potency vs. 28 (rat mGlu5; mGlu5 potency vs 28): > 100 fold
SMILES: Cc1ncc(Oc2cc(Cl)cc(C(=O)Nc3ccc(F)cn3)c2)cn1 [Compound 75]

- fold loss of potency compared to 25 (rat mGlu5; mGlu5 potency vs 25): 7 fold
SMILES: CCCc1csc(NC(=O)c2cc(Cl)cc(Oc3cncnc3)c2)n1 [Compound 38]

- fold decrease in potency vs. 66 (rat mGlu5; mGlu5 potency vs 66): 5 fold
SMILES: Cc1cccc(NC(=O)c2cc(Cl)cc(Oc3cnc(C)nc3)c2)n1 [Compound 76]

From PMC3846293 (Bioorganic & medicinal chemistry letters, 2013)
